Measured values taken from US12037327B2, “Compounds and methods targeting GPER for treatment of diseases associated with calcium” (Saint Louis University, priority 2018, dated 2024).
“Also recorded” adds a separate entry of the source.

Legend:
ERα = biological target: T1, ERα (Homo sapiens, UniProt P03372); test: ERα PolarScreen fluorescence polarization competitor assay; assay type: binding; conditions: duplicate
T1 construct: purchased Invitrogen (Carlsbad, CA)
T1 sequence (P03372 1-595): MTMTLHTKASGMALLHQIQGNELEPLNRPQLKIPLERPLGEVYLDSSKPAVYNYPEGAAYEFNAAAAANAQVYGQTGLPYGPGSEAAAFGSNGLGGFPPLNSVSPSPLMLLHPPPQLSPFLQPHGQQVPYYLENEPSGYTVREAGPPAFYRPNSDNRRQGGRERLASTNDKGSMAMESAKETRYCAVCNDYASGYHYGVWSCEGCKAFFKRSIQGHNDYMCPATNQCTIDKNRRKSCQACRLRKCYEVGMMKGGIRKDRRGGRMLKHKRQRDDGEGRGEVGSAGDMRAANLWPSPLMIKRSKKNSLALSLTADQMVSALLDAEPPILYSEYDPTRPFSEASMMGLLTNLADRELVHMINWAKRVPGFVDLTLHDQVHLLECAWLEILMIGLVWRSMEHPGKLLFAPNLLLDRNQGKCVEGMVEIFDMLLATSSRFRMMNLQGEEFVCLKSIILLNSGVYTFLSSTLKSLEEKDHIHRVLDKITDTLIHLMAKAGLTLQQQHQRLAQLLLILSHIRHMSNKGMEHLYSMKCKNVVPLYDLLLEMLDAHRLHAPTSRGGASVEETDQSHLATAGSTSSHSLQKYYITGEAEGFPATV
Method: (§1) FIGS. 3A & 3B show fluorescence polarization studies performed on classical estrogen receptors, ERα and ERβ, to determine off-target binding. Studies were performed in duplicate. […] Overall, it appears that compound 1 binds greater to ERβ than ERα and compound 2 binds to ERα but not ERβ.
(§2) The ERα and ERβ PolarScreen™ Competitor Assays by Invitrogen (Carlsbad, CA) were purchased and utilized to determine binding to the classical nuclear esetrogen recetors, ERα and ERβ. The concentrations of the ERα and ERβ enzyme varied between the two assays. A 4× sample of ERα was prepared for a final concentration of 75 nM. Conversely, a 4× sample of ERβ was prepared for a final concentration of 23 nM within the assay. For both ERα and ERβ a 4× aliquot of Fluoromone was prepared for a final assay concentration of 4.5 nM. Despite the differences in concentration of ERα and ERβ, the binding assay protocol for the two different enzymes remained the same. Drug dilutions were prepared for a 2× dilution in the ER specific buffer that was provided within the assay kit. In addition to the drug dilutions a 2× aliquot of Fluoromone was prepared by adding 10 uL of 4× with 10 uL of ER specific buffer. A 2× dilution of enzyme and fluorophore was achieved by adding equal portions of each to each other. […] The plate was incubated at RT for 2 hours before being read with λex 485 nm and λem 535 nm.

[1] = biological target: T2, G protein-coupled estrogen receptor (GPER) (Homo sapiens, UniProt Q99527); test: HTRF cAMP formation assay in HL-60 cells; assay type: cell-based; conditions: values with * unexplained
T2 construct: siRNA was used to knock-down expression of GPER; endogenous in cells; host or cells: HL-60 (human myelocytic leukemia) cells
Method: For cAMP formation studies to determine potentcy, a homogeneous time resolved fluorescence (HTRF®) components for cAMP was purchased by CisBio (Bedford, MA). HL-60 cells were grown in 10% charcoal-stripped RPMI media for 72 hours prior to assays. Cells were centrifuged and counted with a hemocytometer from Hausser Scientific (Horsham, PA). The total number of cells needed to complete the assay was determined based upon 8,000 cells/well. The determined number of cells was diluted in 5:1 (5×) stimulation buffer contain 500 μM of 3-isobutyl-1-methylxanthine (IBMX) (Sigma Aldrich, Saint Louis, MO). To an HTRF 96-well low volume white plate from CisBio, 2 μL of (5×) agonist was added to the designated wells, followed by 8 μL of col cell suspension. Two controls were run during the experiment to establish basal cAMP formation and […] cAMP with the use of 20 μM forskolin. Cells were covered with a clear plastic film and incubated at 37° C. for 15 mins. During the 15 minutes incubation a 4:1 solution of lysis buffer to dye was prepared individually. After the 15 minute incubation 5 μL of lysis buffer/cAMP-d2 (acceptor) and 5 μL of lysis buffer/monocolonal anti-cAMP Eu3^+ cryptate (donor) were added to all wells. Once added, the plate was sealed, covered with aluminum foil, and incubated at room temperature for 30 mins. After the allotted time cells were read using Flexstation3 and with λex 314 nm and λem 665 nm/λem 620. Antagonism assay format varied slightly. […] To the plate, 2 μL of (5×) antagonist were added dose wise followed by the addition of 6 μL of cold cell suspension to all wells. Controls from the agonism assay remained the same in the antagonism assay. Cells and antagonists were incubated for 20 minutes at 37° C. […] Similar to the agonism assay a 4:1 ratio of lysis buffer to donor/acceptor were prepared. Following the previous incubation period, 5 μL of lysis buffer/cAMP-d2 (acceptor) and 5 μL of lysis buffer/monocolonal anti-cAMP Eu3^+ cryptate (donor) were added to all wells. Cells were allowed to equilibrate at room temperature for 30 minutes before being read at λex 314 nm and λem 665 nm/λem 620.
(§3) Calcium mobilization signal was assessed with the use of 0.1% pluronic acid and 5 μM Indo-1AM, a ratiometric dye. The EC50 values were determined based upon triplicate runs on triplicate plates. […] Cyclic AMP formation through the Gi/o-pathway was monitored utilizing a homogenous time-resolved fluorescence assay purchased from CisBio. A triplicate was performed and an EC50 value was calculated. […] The EC50 values were determined based upon triplicate runs on a triplicate plates.

GPER [2] = biological target: T3, GPER (Homo sapiens, UniProt Q99527); test: calcium mobilization after siRNA knock down of GPER in HL-60 cells; assay type: cell-based; conditions: HL-60 cells not treated with siRNA; 1 μM
T3 construct: siRNA was used to knock-down expression of GPER; endogenous in cells; host or cells: HL-60 (human myelocytic leukemia) cells

GPER [3] = biological target: T3, GPER; test: calcium mobilization assay, agonists tested against EC50 of GPER antagonist G-36; assay type: cell-based; conditions: for change in calcium efflux in response to G-36: agonist at 100 nM against EC50 of G-36, normalized; for calcium signal when antagonized with G-36: concentration not given
Method: Each signal was normalized to the baseline signaling of G-36 and the maximum signal achieved by the specific agonist. Results are shown at 100 nM.
Calcium mobilization signal was assessed with the use of 0.1% pluronic acid and 5 μM Indo-1AM, a ratiometric dye. The EC50 values were determined based upon triplicate runs on triplicate plates. […] Cyclic AMP formation through the Gi/o-pathway was monitored utilizing a homogenous time-resolved fluorescence assay purchased from CisBio. A triplicate was performed and an EC50 value was calculated. […] The EC50 values were determined based upon triplicate runs on a triplicate plates. To confirm that calcium efflux originated from activation of the G protein-coupled estrogen receptor (GPER), a known selective antagonist, G-36 was used to antagonize the signal. […] Additional data can be found in FIG. 9. […] Without wishing to be bound by any theory, it is believed that within the new functionalization of the scaffold the lone pair on the oxygen of furfuran ring system and the nitrogen on pyridinyl ring system work to activate the receptor. […] Based upon neurite outgrowth studies and without wishing to be bound by any theory, it is believed that the compounds may aid in the elongation and connectivity of neurons. This has implication in a variety of neurodegenerative diseases, such as Alzheimer's disease and Parkinson's disease, but also psychiatric illnesses including Austism and Schizophrenia.

GPER [4] = biological target: T3, GPER; test: cAMP competition study with selective GPER antagonist in HL-60 cells; assay type: cell-based; conditions: EC50 of G-36 plus 1 μM agonist, compared to agonist alone at 1 μM
Method: In cAMP competition studies HL-60 cells were grown in 10% charcoal-stripped RPMI media for 72 hours prior to assays. Cells were centrifuged and counted with a hemocytometer from Hausser Scientific (Horsham, PA). The total number of cells needed to complete the assay was determined based upon 8,000 cells/well. The determined number of cells was diluted in 5:1 (5×) stimulation buffer contain 500 μM of 3-isobutyl-1-methylxanthine (IBMX) (Sigma Aldrich, Saint Louis, MO). […] Following the incubation period, 2 μL of various concentrations of compound (5×) were added. […] The plate was sealed and incubated at 37° C. for 10 minutes. After 10 minutes a 4:1 ratio of lysis buffer to donor/acceptor were individually prepared and 5 μL of lysis buffer/cAMP-d2 (acceptor) and 5 μL of lysis buffer/monocolonal anti-cAMP Eu3+ cryptate (donor) were added to all wells. The assay plate was sealed and incubated at room temperature for 30 minutes before being read at λex 314 nm and λem 665 nm/λem 620.

ERβ = biological target: T4, ERβ (Homo sapiens, UniProt Q92731); test: ERβ PolarScreen fluorescence polarization competitor assay; assay type: binding; conditions: duplicate
T4 construct: purchased Invitrogen (Carlsbad, CA)
Method: as §1, §2

[5] = biological target: T2, G protein-coupled estrogen receptor (GPER); test: calcium mobilization assay in HL-60 cells (Indo-1AM); assay type: cell-based; conditions: triplicate runs on triplicate plates, read-out: EC50 (Ca^2+)
Method: For the calcium mobilization studies, Human Myelocytic Leukemia (HL-60) cells were grown in phenol red free media containing 10% activated fetal bovine serum (FBS), 1% Pen-Strep, and 1% Glutamax. Cells were grown to no more than 1×10^6 cells/mL to prevent differentiation before being split. Prior to assay cells were transferred to phenol red free media containing charcoal-stripped FBS. On the day of the assay cells were centrifuged down at 16.4 G for 5 minutes and washed with 50:1 HBSS/HEPES. Cells were resuspended at 1×10^7 cells/mL in 50:1 HBSS/HEPES. To the resuspended cells, […] pluronic acid and 5 uM of fluorescent calcium indicator, Indo-1AM, were added. The dye solution was incubated for 0.5 hrs at room temperature with rocking. After 30 minutes cells were spun down, and resuspended in 50:1 HBSS/HEPES. Cells were placed on ice for at least 5 minutes and then resuspended in 8.5 mL of 50:1 HBSS/HEPES for agonism assays. For agonism assays 160 μL of cell suspension were added to a 96-well plate and were incubated at […] for 20 minutes in a FlexStation® 3 plate reader (Molecular Devices). Inside the plate reader, 40 μL of agonist were added to each well and excited with 350 nm and read at emissions of 405 nm and 490 nm.
as §3

[6] = tested on: E18 embryonic rat cortical neurons; test: neurite outgrowth in E18 embryonic rat neurons; assay type: cell-based; conditions: for neurite outgrowth with GPER antagonist G-15: 100 nM agonist plus 100 nM G-15; for neurite outgrowth: 100 nM agonist, 72 hours, compared to vehicle control

T4 sequence (Q92731 whole entry): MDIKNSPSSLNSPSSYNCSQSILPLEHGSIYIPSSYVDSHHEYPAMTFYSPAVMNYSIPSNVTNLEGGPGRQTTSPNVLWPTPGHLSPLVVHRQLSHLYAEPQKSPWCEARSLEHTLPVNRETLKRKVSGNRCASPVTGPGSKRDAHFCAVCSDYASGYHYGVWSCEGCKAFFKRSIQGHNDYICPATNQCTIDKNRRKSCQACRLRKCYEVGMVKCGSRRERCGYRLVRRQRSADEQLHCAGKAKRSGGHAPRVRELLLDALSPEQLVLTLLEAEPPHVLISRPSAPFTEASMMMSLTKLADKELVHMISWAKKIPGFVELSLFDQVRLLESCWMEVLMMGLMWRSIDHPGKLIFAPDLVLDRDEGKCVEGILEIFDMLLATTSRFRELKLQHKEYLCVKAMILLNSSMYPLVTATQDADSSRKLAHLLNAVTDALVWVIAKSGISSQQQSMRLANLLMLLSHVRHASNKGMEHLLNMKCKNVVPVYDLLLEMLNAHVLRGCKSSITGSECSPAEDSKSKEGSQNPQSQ
T2 sequence (Q99527 whole entry): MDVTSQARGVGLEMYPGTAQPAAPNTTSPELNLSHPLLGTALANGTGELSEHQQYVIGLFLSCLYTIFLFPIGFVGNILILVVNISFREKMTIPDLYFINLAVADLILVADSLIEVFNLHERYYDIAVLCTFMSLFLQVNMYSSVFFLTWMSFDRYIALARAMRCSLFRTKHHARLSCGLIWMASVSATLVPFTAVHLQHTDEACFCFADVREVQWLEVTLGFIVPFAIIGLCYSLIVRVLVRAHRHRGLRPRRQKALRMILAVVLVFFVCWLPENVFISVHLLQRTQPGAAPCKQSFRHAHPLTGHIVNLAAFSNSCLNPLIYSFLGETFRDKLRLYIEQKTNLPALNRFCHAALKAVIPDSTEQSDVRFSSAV
T3 sequence (Q99527 whole entry): as above

Row | SMILES | EC50 [1] [nM] | calcium compared to the vehicle control, no siRNA (GPER [2]) | change in calcium efflux in response to G-36 (GPER [3]) | activation of adenylate cyclase and cAMP formation when challenged against G-36 (GPER [4]) | EC50 [5] [nM] | calcium signal when antagonized with G-36 (GPER [3]) | binding to ERα (ERα) | binding to ERβ (ERβ) | neurite outgrowth with GPER antagonist G-15 [6] | neurite outgrowth [6]
1 | CC(C)c1ccc(NCc2ccc(CO)o2)c(C2CCCCC2)c1 [Compound 1] | 1590 | no statically significant difference | significant increase | statistically significant reduction | 1300 ± 322 | – | exhibit binding; also recorded: significant binding | exhibit binding; also recorded: appeared to show binding | – | –
2 | CC(C)c1ccc(NCc2ccoc2)c(C2CCCCC2)c1 [Compound 2] | 1190 | no statically significant difference | significant increase | statistically significant reduction | 699 ± 85 | reduced to basal response | exhibit binding; also recorded: significant binding | exhibit binding; also recorded: binding trend for compound 2 was less consistent | reduction in signal | statistically significant increase
3 | COc1ccc(CNc2ccc(C(C)C)cc2C2CCCCC2)cn1 [Compound 6] | 1250 ± 304 | – | – | – | 52.1 ± 12.1 | – | – | – | – | –
4 | CC(C)c1ccc(NCc2ccoc2)c(C2CCCCC2)c1 [Compound 26] | – | – | – | – | – | – | – | – | significantly diminished | statistically significant increase
5 | CCOCc1ccc(CNc2ccc(C(C)C)cc2C2CCCCC2)o1 [Compound 37] | – | – | – | – | – | – | – | – | significantly diminished | statistically significant increase
6 | CC(=O)c1ccc2c(c1)C1C=CCC1C(c1cc3c(cc1Br)OCO3)N2 (centres unmarked) [Compound G-1, reference compound] | – | – | – | – | – | – | – | – | reduction in signal | statistically significant increase

Now from value to compound, other results behind:

Row | EC50 [1] [nM] | calcium compared to the vehicle control, no siRNA (GPER [2]) | change in calcium efflux in response to G-36 (GPER [3]) | activation of adenylate cyclase and cAMP formation when challenged against G-36 (GPER [4]) | EC50 [5] [nM] | calcium signal when antagonized with G-36 (GPER [3]) | SMILES | binding to ERα (ERα) | binding to ERβ (ERβ) | neurite outgrowth with GPER antagonist G-15 [6] | neurite outgrowth [6]
7 | 948 ± 272 | – | significant reduction | – | 94.4 ± 11.8 | – | CC(C)c1ccc(NCc2ccc(C3OCCO3)o2)c(C2CCCCC2)c1 [Compound 3] | – | – | – | –
8 | 290 ± 58 | – | significant reduction | – | 38.7 ± 12.9 | – | CC(C)c1ccc(NCc2ccc(C3CCCCO3)o2)c(C2CCCCC2)c1 (centres unmarked) [Compound 4] | – | – | – | –
9 | 389 ± 61.6 | – | statistically significant decrease | – | 50.8 ± 5.81 | reduced to basal response | CCOCc1ccc(CNc2ccc(C(C)C)cc2C2CCCCC2)o1 [Compound 5] | – | – | reduction in signal | statistically significant increase
10 | 830 ± 273 | – | statistically significant decrease | – | 60.1 ± 18.2 | reduced to basal response | COCc1ccc(CNc2ccc(C(C)C)cc2C2CCCCC2)o1 [Compound 7] | – | – | – | –
